{"source": "paper PMC8496750", "about": "“Identification of the organic anion transporting polypeptides responsible for the hepatic uptake of the major metabolite of epyrifenacil, S‐3100‐CA, in mice” (Pharmacology Research & Perspectives, 2021)", "molecular_target": "T1, human OATP1B1 (Homo sapiens, UniProt Q9Y6L6)", "T1 construct": "expressed in transfected cells; host or cells: 293FT cells", "T1 sequence (Q9Y6L6 1-691)": "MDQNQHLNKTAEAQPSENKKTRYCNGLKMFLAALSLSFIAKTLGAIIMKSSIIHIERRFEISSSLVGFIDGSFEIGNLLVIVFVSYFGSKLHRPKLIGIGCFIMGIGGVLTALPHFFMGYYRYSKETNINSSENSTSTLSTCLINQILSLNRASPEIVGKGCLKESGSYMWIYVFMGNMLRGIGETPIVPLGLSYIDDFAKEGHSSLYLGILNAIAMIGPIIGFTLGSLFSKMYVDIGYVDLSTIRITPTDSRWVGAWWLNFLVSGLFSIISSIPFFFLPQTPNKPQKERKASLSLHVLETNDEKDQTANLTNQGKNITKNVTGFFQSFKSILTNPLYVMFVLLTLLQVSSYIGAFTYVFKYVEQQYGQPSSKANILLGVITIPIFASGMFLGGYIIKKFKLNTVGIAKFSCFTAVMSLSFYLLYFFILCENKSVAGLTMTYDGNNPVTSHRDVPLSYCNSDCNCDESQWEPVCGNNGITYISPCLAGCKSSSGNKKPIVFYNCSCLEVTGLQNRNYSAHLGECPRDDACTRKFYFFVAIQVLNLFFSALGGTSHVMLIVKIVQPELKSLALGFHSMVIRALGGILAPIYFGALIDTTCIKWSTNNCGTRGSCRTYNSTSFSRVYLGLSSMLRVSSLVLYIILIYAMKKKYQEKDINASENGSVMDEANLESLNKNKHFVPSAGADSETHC", "assay": "Inhibition of S‐3100‐CA uptake by OATP inhibitors, human OATP1B1", "format": "in vitro ADME", "conditions": "inhibitor at 100 μM", "description": "293FT cells were purchased from Thermo Fisher Scientific, Inc.. The cells were grown in Dulbecco's modified Eagle medium (supplemented with 4.5 g/L glucose and 2 mM L‐glutamine) at 37°C, 5% CO2, and 95% humidity. The cells were passaged 3 times per week by harvesting cells using trypsin and plating at a density of 1.0 × 10^4 cells/cm^2 in a 10 cm cell culture plate for maintenance culture. The 293FT cells were detached using trypsin and re‐seeded at a density of 2.5 × 10^4 cells/cm^2 in BioCoat™ Collagen I 6‐well plates (Corning Inc.) for transfection and then treated with 1.2 μg of plasmid vector and 3.2 μl of Lipofectamine™ 2000 Transfection Reagent (Thermo Fisher Scientific, Inc.) according to the manufacturer's instructions. After a 3‐h treatment, the transfection medium was replaced with a fresh cell culture medium and incubated at 37°C with 95% humidity and 5% CO2 until ready for the assay.\nTransport experiments were conducted approximately 24 h post‐transfection. […] From the lysate, 1.0 ml was transferred to a vial containing 10 ml of Emulsifier Scintillator Plus to measure the radioactivity in the LSC. The protein concentration of the cell lysate was also measured using a Pierce™ BCA Protein Assay Kit (Thermo Fisher Scientific, Inc.), which was used to normalize, according to the cell number, the radioactivity in the cell lysate extract. […]"}
{"smiles": "CO[C@H]1/C=C/O[C@@]2(C)Oc3c(C)c(O)c4c(O)c(c(/C=N/N5CCN(C)CC5)c(O)c4c3C2=O)NC(=O)/C(C)=C\\C=C\\[C@H](C)[C@H](O)[C@@H](C)[C@@H](O)[C@@H](C)[C@H](OC(C)=O)[C@@H]1C", "note": "[RIF, Rifampicin]", "values": [{"measurement": "Uptake of S‐3100‐CA, % of that by vehicle‐treated cells", "result": "less than 40%"}]}
